What was measured:
[1] = tested on: Plasmopara viticola; assay: whole plant or invertebrate; format: in vivo; settings: foliar
[2] = tested on: Phytophthora infestans; assay: whole plant or invertebrate; format: in vivo; settings: in Solanum lycopersicum, foliar, read-out: control of Phytophthora infestans
[3] = tested on: Pythium ultimum; assay: Pythium ultimum / liquid culture (seedling damping off); format: cell-based; settings: Globisporangium ultimum, growth inhibition determined photometrically, compared to untreated control
Procedure: Pythium ultimum/Liquid Culture (Seedling Damping Off)
Mycelia fragments and oospores of a newly grown liquid culture of the fungus are directly mixed into nutrient broth (PDB potato dextrose broth). After placing a (DMSO) solution of test compound into a microtiter plate (96-well format), the nutrient broth containing the fungal mycelia/spore mixture is added.
The test plates are incubated at 24° C. and the inhibition of growth is determined photometrically 2-3 days after application.

COC(=O)Nc1ccc(-c2cnc3c(C)cc(C(=O)N(C)c4cccc5c4OCC5)cn23)cn1 [Compound 1, methyl N-[5-[6-[2,3-dihydrobenzofuran-7-yl(methyl)carbamoyl]-8-methyl-imidazo[1,2-a]pyridin-3-yl]-2-pyridyl]carbamate]
pest or weed control at 200 ppm [1]: ≥ 80%

COC(=O)Nc1ccc(-c2cnc3c(C)cc(C(=O)N4CCN(C)c5cc(F)ccc54)cn23)cn1 [Compound 2, methyl N-[5-[6-(6-fluoro-4-methyl-2,3-dihydroquinoxaline-1-carbonyl)-8-methyl-imidazo[1,2-a]pyridin-3-yl]-2-pyridyl]carbamate]
pest or weed control at 200 ppm [1]: ≥ 80% | pest or weed control at 200 ppm [2]: ≥ 80% | inhibition of growth at 20 ppm [3]: ≥ 80%

COC(=O)Nc1ccc(-c2cnc3ccc(C(=O)N4CCN(C)c5cc(F)ccc54)cn23)cn1 [Compound 3, methyl N-[5-[6-(6-fluoro-4-methyl-2,3-dihydroquinoxaline-1-carbonyl)imidazo[1,2-a]pyridin-3-yl]-2-pyridyl]carbamate]
pest or weed control at 200 ppm [1]: ≥ 80% | pest or weed control at 200 ppm [2]: ≥ 80% | inhibition of growth at 20 ppm [3]: ≥ 80%

COC(=O)Nc1ccc(-c2cnc3ccc(C(=O)N(C)c4cccc5c4OCC5)cn23)cn1 [Compound 4, methyl N-[5-[6-[2,3-dihydrobenzofuran-7-yl(methyl)carbamoyl]imidazo[1,2-a]pyridin-3-yl]-2-pyridyl]carbamate]
pest or weed control at 200 ppm [1]: ≥ 80% | inhibition of growth at 20 ppm [3]: ≥ 80%

COC(=O)Nc1ccc(-c2cnc3ccc(C(=O)N4CCCc5c(C(=O)OC)cccc54)cn23)cn1 [Compound 7, methyl 1-[3-[6-(methoxycarbonylamino)-3-pyridyl]imidazo[1,2-a]pyridine-6-carbonyl]-3,4-dihydro-2H-quinoline-5-carboxylate]
pest or weed control at 200 ppm [1]: ≥ 80% | inhibition of growth at 20 ppm [3]: ≥ 80%

COC(=O)Nc1ccc(-c2cnc3ccc(C(=O)N4CC(C(=O)OC)Cc5ccccc54)cn23)cn1 (stereo not drawn) [Compound 11, methyl 1-[3-[6-(methoxycarbonylamino)-3-pyridyl]imidazo[1,2-a]pyridine-6-carbonyl]-3,4-dihydro-2H-quinoline-3-carboxylate]
pest or weed control at 200 ppm [1]: ≥ 80% | pest or weed control at 200 ppm [2]: ≥ 80% | inhibition of growth at 20 ppm [3]: ≥ 80%

COC(=O)Nc1ccc(-c2cnc3ccc(C(=O)N4CCCc5c4ccc(F)c5F)cn23)cn1 [Compound 21, methyl N-[5-[6-(5,6-difluoro-3,4-dihydro-2H-quinoline-1-carbonyl)imidazo[1,2-a]pyridin-3-yl]-2-pyridyl]carbamate]
pest or weed control at 200 ppm [1]: ≥ 80% | pest or weed control at 200 ppm [2]: ≥ 80% | inhibition of growth at 20 ppm [3]: ≥ 80%

COC(=O)Nc1ccc(-c2cnc3ccc(C(=O)N(C)c4ccc(F)cc4OC)cn23)cn1 [Compound 30, methyl N-[5-[6-[(4-fluoro-2-methoxy-phenyl)-methyl-carbamoyl]imidazo[1,2-a]pyridin-3-yl]-2-pyridyl]carbamate]
pest or weed control at 200 ppm [1]: ≥ 80% | pest or weed control at 200 ppm [2]: ≥ 80% | inhibition of growth at 20 ppm [3]: ≥ 80%

CCOC(=O)C1Cc2cc(F)ccc2N(C(=O)c2ccc3ncc(-c4ccc(NC(=O)OC)nc4)n3c2)C1 (stereo not drawn) [Compound 35, ethyl 6-fluoro-1-[3-[6-(methoxycarbonylamino)-3-pyridyl]imidazo[1,2-a]pyridine-6-carbonyl]-3,4-dihydro-2H-quinoline-3-carboxylate]
pest or weed control at 200 ppm [1]: ≥ 80% | pest or weed control at 200 ppm [2]: ≥ 80% | inhibition of growth at 20 ppm [3]: ≥ 80%

COC(=O)Nc1ccc(-c2cnc3ccc(C(=O)N(C)c4cccc(Cl)c4Cl)cn23)cn1 [Compound 39, methyl N-[5-[6-[(2,3-dichlorophenyl)-methyl-carbamoyl]imidazo[1,2-a]pyridin-3-yl]-2-pyridyl]carbamate]
pest or weed control at 200 ppm [1]: ≥ 80%

COC(=O)Nc1ccc(-c2cnc3ccc(C(=O)N4CCN(C5CC5)c5cc(F)ccc54)cn23)cn1 [Compound 51, methyl N-[5-[6-(4-cyclopropyl-6-fluoro-2,3-dihydroquinoxaline-1-carbonyl)imidazo[1,2-a]pyridin-3-yl]-2-pyridyl]carbamate]
pest or weed control at 200 ppm [1]: ≥ 80% | pest or weed control at 200 ppm [2]: ≥ 80% | inhibition of growth at 20 ppm [3]: ≥ 80%

COC(=O)Nc1ccc(-c2cnc3ccc(C(=O)N(C)c4cc(F)ccc4F)cn23)cn1 [Compound 54, methyl N-[5-[6-[(2,5-difluorophenyl)-methyl-carbamoyl]imidazo[1,2-a]pyridin-3-yl]-2-pyridyl]carbamate]
pest or weed control at 200 ppm [2]: ≥ 80% | inhibition of growth at 20 ppm [3]: ≥ 80%

COC(=O)Nc1ccc(-c2cnc3ccc(C(=O)N4CCCc5c4ccc(F)c5OC)cn23)cn1 [Compound 62, methyl N-[5-[6-(6-fluoro-5-methoxy-3,4-dihydro-2H-quinoline-1-carbonyl)imidazo[1,2-a]pyridin-3-yl]-2-pyridyl]carbamate]
pest or weed control at 200 ppm [2]: ≥ 80% | inhibition of growth at 20 ppm [3]: ≥ 80%

COC(=O)Nc1ccc(-c2cnc3ccc(C(=O)N4CCCc5cc(F)c(OC)cc54)cn23)cn1 [Compound 64, methyl N-[5-[6-(6-fluoro-7-methoxy-3,4-dihydro-2H-quinoline-1-carbonyl)imidazo[1,2-a]pyridin-3-yl]-2-pyridyl]carbamate]
pest or weed control at 200 ppm [1]: ≥ 80% | pest or weed control at 200 ppm [2]: ≥ 80% | inhibition of growth at 20 ppm [3]: ≥ 80%

COC(=O)Nc1ccc(-c2cnc3ccc(C(=O)N4CCCc5cc(F)ccc54)cn23)cn1 [Compound 66, methyl N-[5-[6-(6-fluoro-3,4-dihydro-2H-quinoline-1-carbonyl)imidazo[1,2-a]pyridin-3-yl]-2-pyridyl]carbamate]
pest or weed control at 200 ppm [1]: ≥ 80% | pest or weed control at 200 ppm [2]: ≥ 80% | inhibition of growth at 20 ppm [3]: ≥ 80%

COC(=O)Nc1ccc(-c2cnc3ccc(C(=O)N(C)c4ccc(F)cc4F)cn23)cc1 [Compound 78, methyl N-[4-[6-[(2,4-difluorophenyl)-methyl-carbamoyl]imidazo[1,2-a]pyridin-3-yl]phenyl]carbamate]
pest or weed control at 200 ppm [1]: ≥ 80% | inhibition of growth at 20 ppm [3]: ≥ 80%

Source: patent US20260271933A1 (priority 2023, published 2026)
